Earlier results as cited in patent publication US12400737B2, “Methods of classifying diffuse large B-cell lymphoma” (CELGENE CORPORATION, priority 2018, dated 2025).

Assays:
[1] = test system: diffuse large B-cell lymphoma (DLBCL); conditions: background statement
[2] = test system: acute myeloid leukemia (AML); conditions: administered alone

For `Nc1cccc2c1CN(C1CCC(=O)NC1=O)C2=O` (centres unmarked) [lenalidomide, 3-(4-amino-1-oxo-1,3-dihydro-isoindol-2-yl)-piperidine-2,6-dione], the “single-agent activity in DLBCL” value [1] is given as “significant single-agent activity”.

For “CT-011: anti-PD-1 antibody, a humanized antibody”, the “response in treating AML at relapse” value [2] is given as “failed to show response”.
